What was measured:
[1] = test system: Shigella sonnei ATCC 9290; assay: Individual bacteria count per bird at pH 8 (Example 3); assay type: cell-based; conditions: 25 birds per treatment, control 4551
Description: (§1) This group of tests was conducted to determine the effect of Clorox® bleach, Aquatize® biocide, and 1,3-dibromo-5,5-dimethylhydantoin (DBDMH) on carcass bacteria (Escherichia coli field strain) residual after 1,5-hour in a chill tank “soup”. Tests were conducted with soups at pH 7, pH 8 and pH 9 (adjusted by trisodium phosphate) for whole bird bacteria counts. Tests at pH 8 were conducted for individual bacteria counts.
(§2) In general the tests involved normal processing of 56-day-old birds and immersing the carcasses first in a warm bath containing 10^4 per mL Escherichia coli, 10^4 per mL Salmonella enteritidis, 10^4 per mL Pseudomonas aeruginosa, 10^4 per mL Campylobacter jejuni, and 10^4 per mL spoilage bacteria each from […] strains (Listeria monocytogenes and Shigella sonnei). The carcasses were then immersed in a chill tank “soup”, containing normal organic fluids (blood, fat, skin, and meat particles) and containing the microbiocides on the test.
(§3) The bacteria stock solution used for this group of tests was prepared by growing each bacteria sample in the appropriate broth shown in Table 12. […] The containers were observed and not allowed to develop a heavy, cloudy visual appearance which would indicate that the growth had developed for too long a period. Thus the solutions had the appearance of only being foggy or somewhat unclear.
(§4) The procedure used for whole bird wash sampling was as follows: • 1. All samples were kept at ≦50 degrees Fahrenheit following collection. • 2. Microbiological analyses of samples began within 24 hours of sample collection. • 3. Information on the individual sample identification, date of collection, time of collection (phase during shift), treatment group and location of sample point were recorded on each sample bottle. • 4. At each defined sample time, carcasses were taken individually from the processing line wearing latex or rubber gloves. The gloves were rinsed with alcohol between each collection. • 5. Any excess fluid was drained off from the carcass. Each individual carcass was transferred to a sterile stomacher bag. • 6. To each carcass contained in the sterile stomacher bag, 400 mL of Butterfield's Phosphate Diluent (BPD) was added while making sure to pour the BPD into the inside of the carcass cavity. The carcass was rinsed inside and out with a rocking motion for one minute (ca. 35 RPM). This was best done by grasping the broiler carcass with one hand and the closed top of the bag with the other then rocking with a reciprocal motion in a 18-24 inch arc, assuring that all surfaces (interior and exterior of the carcass) were rinsed. • 7. The rinse solutions from each stomacher bag was transferred into the sample bottles, taking care to ensure that the information on the date of collection, time of collection (phase during shift), treatment group and location of sampler point matched that of the sample. • 8. Each bottle was sealed with parafilm and placed into a styrene container with crushed or dry ice or frozen freezer packs for overnight delivery to a testing laboratory. • 9. All filled styrene containers were held in a chilled (not below freezing) area until within 1 to 2 hours of courier collection for shipment.
(§5) In greater detail the trial events and experimental design used in this group of tests were as follows: • a) Test microorganisms used were: • Escherichia coli ATCC 11229 • Pseudomonas aeruginosa ATCC 15442 • Salmonella enteritidis ATCC 13076 • Shigella sonnei ATCC 9290 • Listeria monocytogenes ATCC 7644 • Campylobacter jejuni ATCC 29428 • b) Test Procedure: All test strains were grown individually at 35° C. for 24 hours in the media specified in Table 12. Cells were harvested by centrifugation at 10,000×g for 10 minutes and washed twice with Butterfield's Phosphate Buffer (BPB of pH 7.2). Cells were resuspended in BPB to obtain a cell suspension of approximately 1.0×10^8 CFU/mL for each microorganism. […]

[2] = test system: Listeria monocytogenes ATCC 7644; assay: as above; assay type: cell-based; conditions: 25 birds per treatment, control 2463
Description: as §1, §2, §3, §4, §5

[3] = test system: Salmonella enteritidis ATCC 13076; assay: as above; assay type: cell-based; conditions: 25 birds per treatment, control 3969
Description: as §1, §2, §3, §4, §5

Salmonella = Salmonella positive samples, simulated USDA HACCP detection (Example 6); assay type: cell-based, Salmonella enteritidis; conditions: for Salmonella Positive Samples (Number per 51): birds inoculated with Salmonella prior to chilling
Description: The objective of this study was to determine the effect of Clorox® bleach and 1,3-dibromo-5,5-dimethylhydantoin (DBDMH) on individual carcass bacteria field strains after 1.5 hour in a chill tank solution and spoilage 20-day shelf life longevity (caused by bacteria contamination) in a Graded Level Study Model. After normal processing of 56-day-old birds, carcasses were immersed first in a warm bath containing 10^4 CFU's per mL Escherichia coli, 10^4 CFU's per mL Salmonella enteritidis, 10^4 CFU's per mL Pseudomonas aeruginosa, 10^4 CFU's per mL Campylobacter jejuni, and 10^4 CFU's per mL spoilage bacteria each from two strains (Listeria monocytogenes and Shigella sonnei). Carcasses were then immersed in a chill tank “soup”, containing normal organic fluids (blood, fat, skin, and meat particles) and containing various disinfectants (termed test materials). These tests were conducted at pH 8 (adjusted by trisodium phosphate). Skin pigmentation (Minolta Color Meter L value or Lightness, a value or redness and b value or yellowness) was determined before and after processing. Post-chilling skin bacteria of various strains were determined over a 20-day period. […] After salmonella infection in chill tanks, USDA HACCP salmonella detection was simulated and reported.
A DBDMH stock solution and DBDMH test solutions of the concentrations specified in Table 33, a bacteria stock solution, and a “chicken soup” were prepared as in Example 3. In addition, the bacterial broth treatments, the whole bird wash sampling procedure, and the methodologies used for quantitative or qualitative determinations for bacterial organisms were conducted as in Example 3.
The trial events and experimental design used in this group of tests were the same as in Example 5 with the following exceptions: • a) The temperature during the 20-day period of storage in the refrigerator was […]. • b) Observations of the degree of “bloating” (defined as water or air additions under the skin area considered objectionable) were conducted on all processed birds. • c) On each of sampling days 0, 2, 4, 6, 8, 10, 12, 14, 16, 18, and 20, ten carcasses from each treatment were analyzed by removing 23.8 cm^2 of skin from the breast right up to the neck using a template and a sterile scalpel. Each skin sample was placed in a bag with 15 mL Butterfield's Phosphate Buffer Solution (BPBS) added and treated in a Stomacher bag for 60 seconds. A 10-fold dilution series of the mixture was made in BPBS and two parallel samples of […] each were spread on the appropriate plate count agar for determination of the total viable numbers. The plates were incubated at 35° C. for 24 hours. Mean values were calculated from the two determinations of the three samples taken from each combination of chilling and storage. Bacterial numbers were reported as pooled or averaged log10 colony-forming units (CFU's) per square centimeter. • d) Also on sampling day 0, 102 total of the remaining 110 carcasses from each treatment (all bloating and oddly processed birds were removed) were “whole bird” washed by the sampling procedure described in Example 3. Salmonella detection were noted and reported as number of positive salmonella colonies per 51 birds and % of total.

CC1(C)C(=O)N(Br)C(=O)N1Br [DBDMH, 1,3-dibromo-5,5-dimethylhydantoin]
average bacteria count per bird, S. sonnei ([1]; 10 ppm): 456 per bird
average bacteria count per bird, S. sonnei ([1]; 20 ppm): 12 per bird
average bacteria count per bird, L. monocytogenes ([2]; 10 ppm): 262 per bird
average bacteria count per bird, L. monocytogenes ([2]; 20 ppm): 6 per bird
average bacteria count per bird, S. enteritidis ([3]; 10 ppm): 560 per bird
average bacteria count per bird, S. enteritidis ([3]; 20 ppm): 10 per bird
Salmonella Positive Samples (Number per 51) (Salmonella; 5 ppm, control 32/51): 7/51
Salmonella Positive Samples (% of total) (Salmonella; 5 ppm, control 62.74%): 13.73%
Salmonella Positive Samples (% of total) (Salmonella; 10 ppm): 7.84%
Salmonella Positive Samples (Number per 51) (Salmonella; 10 ppm): 4/51
Salmonella Positive Samples (% of total) (Salmonella; 15 ppm): 3.92%
Salmonella Positive Samples (Number per 51) (Salmonella; 15 ppm): 2/51
Salmonella Positive Samples (% of total) (Salmonella; 20 ppm): 1.96%
Salmonella Positive Samples (Number per 51) (Salmonella; 20 ppm): 1/51
Salmonella Positive Samples (% of total) (Salmonella; 25 ppm): 0.00%
Salmonella Positive Samples (Number per 51) (Salmonella; 25 ppm): 0/51
